The values that follow come from ChEMBL document CHEMBL1136591, “Novel N1-(benzyl)cinnamamidine derived NR2B subtype-selective NMDA receptor antagonists” (Bioorg Med Chem Lett, 2003).

T1 sequence (Q13224 whole entry, other chains not shown): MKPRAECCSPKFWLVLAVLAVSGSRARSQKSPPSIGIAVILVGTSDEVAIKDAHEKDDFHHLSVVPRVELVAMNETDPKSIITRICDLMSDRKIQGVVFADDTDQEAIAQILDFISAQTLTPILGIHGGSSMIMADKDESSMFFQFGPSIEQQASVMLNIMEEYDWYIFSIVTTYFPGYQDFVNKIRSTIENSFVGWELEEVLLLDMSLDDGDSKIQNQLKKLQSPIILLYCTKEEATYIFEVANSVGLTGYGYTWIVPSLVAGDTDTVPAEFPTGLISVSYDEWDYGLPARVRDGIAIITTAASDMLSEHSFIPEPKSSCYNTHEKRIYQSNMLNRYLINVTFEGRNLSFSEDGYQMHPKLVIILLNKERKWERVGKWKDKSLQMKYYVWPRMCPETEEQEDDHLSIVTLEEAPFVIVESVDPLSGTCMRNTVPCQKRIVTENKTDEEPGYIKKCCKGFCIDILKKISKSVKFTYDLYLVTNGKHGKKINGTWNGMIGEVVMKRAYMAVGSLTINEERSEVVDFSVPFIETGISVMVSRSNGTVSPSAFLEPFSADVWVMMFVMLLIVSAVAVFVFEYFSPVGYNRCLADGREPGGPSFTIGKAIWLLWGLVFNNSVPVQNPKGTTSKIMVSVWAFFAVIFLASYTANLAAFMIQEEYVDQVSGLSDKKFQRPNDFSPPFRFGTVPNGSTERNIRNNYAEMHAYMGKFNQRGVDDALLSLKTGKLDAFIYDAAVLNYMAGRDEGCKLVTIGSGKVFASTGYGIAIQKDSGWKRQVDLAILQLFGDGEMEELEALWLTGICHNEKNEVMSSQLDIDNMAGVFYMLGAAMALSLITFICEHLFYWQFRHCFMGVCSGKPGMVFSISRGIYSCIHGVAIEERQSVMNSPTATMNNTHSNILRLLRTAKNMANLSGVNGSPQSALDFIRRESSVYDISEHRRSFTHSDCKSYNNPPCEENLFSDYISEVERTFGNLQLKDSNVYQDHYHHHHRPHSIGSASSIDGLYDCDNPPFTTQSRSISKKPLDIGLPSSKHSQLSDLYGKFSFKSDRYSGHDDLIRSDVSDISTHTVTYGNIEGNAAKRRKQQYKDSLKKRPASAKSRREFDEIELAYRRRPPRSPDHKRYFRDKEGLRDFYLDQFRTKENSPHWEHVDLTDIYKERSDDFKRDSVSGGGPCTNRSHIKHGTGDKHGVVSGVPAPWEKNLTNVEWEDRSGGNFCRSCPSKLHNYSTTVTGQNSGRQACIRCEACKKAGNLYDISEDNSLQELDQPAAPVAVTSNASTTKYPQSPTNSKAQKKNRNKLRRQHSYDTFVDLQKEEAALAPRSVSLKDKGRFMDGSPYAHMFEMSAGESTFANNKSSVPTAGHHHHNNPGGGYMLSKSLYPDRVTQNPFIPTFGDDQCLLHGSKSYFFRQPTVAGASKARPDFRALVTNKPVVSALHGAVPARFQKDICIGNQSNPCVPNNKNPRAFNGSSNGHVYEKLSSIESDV

In one test the test system is Glutamate NMDA receptor GRIN1/GRIN2A (Homo sapiens). The test can be described thus: Inhibition of the response to glutamate/glycine in NR1a/NR2A expressing cells (No effect uM).
Take `N=C(/C=C/c1ccccc1)NCc1ccccc1`: the IC50 entry was “Not Active”.

The next test addresses T1, Glutamate NMDA receptor; GRIN1/GRIN2B (Homo sapiens, UniProt Q05586+Q13224). Put plainly: Displacement of [3H]ifenprodil binding to recombinant human NR1a/NR2B receptors expressed in L(tk-) cells. The test is classed as cell-based.
As to `N=C(/C=C/c1ccccc1)NCc1cccc(C(F)(F)F)c1`, the Ki came out at 31 nM.

`N=C(NCc1ccccc1Cl)c1ccc2ccccc2c1`: the Ki turned out to be 7.3 nM.

As to `COc1ccccc1C/N=C(\N)c1ccc2ccccc2c1`, the Ki stood at 1.3 nM.

Take `N=C(/C=C/c1ccccc1)NCc1cc(Cl)ccc1Cl`: the Ki came out at 2.7 nM.

Turning to `N=C(/C=C/c1ccccc1)NCc1ccccc1C(F)(F)F`, the Ki stood at 1.4 nM.

As for `N=C(/C=C/c1ccccc1)NCc1ccccc1OC(F)(F)F`, the Ki worked out at 0.6 nM.

On to `N=C(/C=C/c1ccccc1)NCc1ccccc1Cl`, for which the Ki is 1 nM.

Consider `N=C(/C=C/c1ccccc1)NCc1cccc(Cl)c1`, for which the Ki came out at 0.8 nM.

For the molecule `N=C(NCc1cccc(Cl)c1)c1ccc2ccccc2c1`, the Ki came out at 1.6 nM.

Consider `N=C(/C=C/c1cccc(Cl)c1)NCc1ccccc1`, for which the Ki came to 12 nM.

`N=C(/C=C/c1ccccc1)NCc1cc(Cl)cc(Cl)c1`: the Ki stood at 1.4 nM.

On to `N=C(/C=C/c1ccc(F)c(F)c1)NCc1ccccc1`, for which the Ki is 1.7 nM.

Take `N=C(/C=C/c1ccccc1)NCc1ccc(Cl)cc1`: the Ki turned out to be 77 nM.

Regarding `N=C(/C=C/C1CCCCC1)NCc1ccccc1`, the Ki was 19 nM.

For the molecule `N=C(/C=C/c1ccc(Cl)cc1)NCc1ccccc1`, the Ki was 52 nM.

With `N=C(/C=C/c1ccccc1)NCCCc1ccccc1`, the Ki worked out at 120 nM.

For the molecule `N=C(NCc1ccccc1)c1ccc2ccccc2c1`, the Ki was 32 nM.

Consider `COc1cccc(C/N=C(N)/C=C/c2ccccc2)c1`, for which the Ki was 1.9 nM.

For the molecule `N=C(NCCc1ccccc1)c1ccccc1`, the Ki amounted to 55 nM.

Regarding `C[C@@H](CN1CCC(Cc2ccccc2)CC1)[C@@H](O)c1ccc(O)cc1`, the Ki came out at 10 nM.

Regarding `N=C(CCc1ccccc1)NCc1ccccc1`, the Ki amounted to 530 nM.

Turning to `N=C(/C=C/c1ccccc1)NCCc1ccccc1`, the Ki came to 97 nM.

On to `N=C(/C=C/c1ccc(F)cc1)NCc1ccccc1`, for which the Ki was 5.7 nM.

For the molecule `N=C(/C=C/c1ccccc1)NCc1cccc(Cl)c1Cl`, the Ki amounted to 3.6 nM.

As for `NC(=NCc1ccccc1)c1ccccc1`, the Ki stood at 10000 nM.

As for `N=C(/C=C/c1ccccc1Cl)NCc1ccccc1`, the Ki is 93 nM.

Turning to `CCOc1ccccc1C/N=C(N)/C=C/c1ccccc1`, the Ki was 0.5 nM.

The target of a further test is T1, Glutamate NMDA receptor; GRIN1/GRIN2B. The test can be described thus: Inhibition of the response to glutamate/glycine in NR1a/NR2B expressing cells. The test is classed as functional, cell-based.
As to `N=C(/C=C/c1ccccc1)NCc1ccccc1`, inhibition was half-maximal at 70 nM (IC50). This counts as double-digit nanomolar.
